Measurements published in the NIST ThermoML archive (doi:10.1021/je400130b).
Several values for one entry are separate records, joined by “and”; a condition that tells them apart may be missing. Equal entries are not always repeated.

Assay: molar heat capacity at constant pressure
Conditions: 101.33 kPa, Crystal, Small (less than 1 g) adiabatic calorimetry

O=S(=O)([O-])[O-].[Cu+2].[Cu+2].[Cu+2].[OH-].[OH-].[OH-].[OH-] [copper(II) tetrahydroxide sulfate]
Conditions | molar heat capacity at constant pressure
4 K | 4.402 J/K/mol
4.276 K | 3.87 J/K/mol
4.321 K | 4.927 J/K/mol
4.467 K | 6.058 J/K/mol
4.5 K | 6.267 J/K/mol
4.571 K | 6.664 J/K/mol
4.751 K | 7.35 J/K/mol
4.944 K | 8.855 J/K/mol and 8.884 J/K/mol
5 K | 9.138 J/K/mol
5.109 K | 9.647 J/K/mol
5.218 K | 10.19 J/K/mol
5.281 K | 10.29 J/K/mol
5.461 K | 10.03 J/K/mol
5.496 K | 9.756 J/K/mol
5.659 K | 8.612 J/K/mol
5.818 K | 7.934 J/K/mol
5.864 K | 7.741 J/K/mol
6 K | 7.452 J/K/mol
6.058 K | 7.363 J/K/mol
6.147 K | 7.235 J/K/mol
6.298 K | 7.044 J/K/mol
6.566 K | 6.796 J/K/mol
6.592 K | 6.689 J/K/mol
6.889 K | 6.159 J/K/mol
7 K | 6.491 J/K/mol
7.099 K | 6.461 J/K/mol
7.18 K | 6.397 J/K/mol
7.46 K | 6.264 J/K/mol
7.635 K | 6.223 J/K/mol
7.743 K | 6.172 J/K/mol
8 K | 6.095 J/K/mol
8.024 K | 6.079 J/K/mol
8.159 K | 6.056 J/K/mol
8.304 K | 6.014 J/K/mol
8.585 K | 5.956 J/K/mol
8.67 K | 5.936 J/K/mol
8.866 K | 5.89 J/K/mol
9 K | 5.868 J/K/mol
9.144 K | 5.841 J/K/mol
9.172 K | 5.855 J/K/mol
9.421 K | 5.784 J/K/mol
9.668 K | 5.798 J/K/mol
9.696 K | 5.748 J/K/mol
9.972 K | 5.754 J/K/mol
10 K | 5.75 J/K/mol
10.16 K | 5.732 J/K/mol
10.63 K | 5.745 J/K/mol
10.93 K | 5.732 J/K/mol
11.68 K | 5.739 J/K/mol
11.98 K | 5.75 J/K/mol
12.74 K | 5.81 J/K/mol
13.03 K | 5.85 J/K/mol
13.78 K | 5.989 J/K/mol
14.06 K | 6.069 J/K/mol
14.8 K | 6.285 J/K/mol
15 K | 6.341 J/K/mol
15.07 K | 6.393 J/K/mol
15.81 K | 6.636 J/K/mol
16.07 K | 6.722 J/K/mol
16.8 K | 6.975 J/K/mol
17.07 K | 7.117 J/K/mol
17.8 K | 7.522 J/K/mol
18.06 K | 7.677 J/K/mol
18.78 K | 8.087 J/K/mol
19.04 K | 8.238 J/K/mol
19.76 K | 8.67 J/K/mol
20 K | 8.85 J/K/mol
20.02 K | 8.833 J/K/mol
21.22 K | 9.779 J/K/mol
21.5 K | 9.988 J/K/mol
23.18 K | 11.26 J/K/mol
23.46 K | 11.52 J/K/mol
25 K | 12.91 J/K/mol
25.15 K | 13.02 J/K/mol
27.12 K | 14.99 J/K/mol
29.09 K | 17.14 J/K/mol
30 K | 18.13 J/K/mol
31.06 K | 19.35 J/K/mol
33.03 K | 21.62 J/K/mol
34.81 K | 23.66 J/K/mol
35 K | 24 J/K/mol
35.01 K | 23.95 J/K/mol
36.98 K | 26.35 J/K/mol
37.09 K | 26.53 J/K/mol
38.96 K | 28.94 J/K/mol
39.07 K | 29.08 J/K/mol
40 K | 30.19 J/K/mol
41.04 K | 31.63 J/K/mol
43.02 K | 34.11 J/K/mol
44.99 K | 36.64 J/K/mol
45 K | 36.59 J/K/mol
46.97 K | 39.09 J/K/mol
48.95 K | 41.56 J/K/mol
50 K | 43.07 J/K/mol
50.93 K | 44.19 J/K/mol
52.91 K | 46.98 J/K/mol
54.89 K | 49.62 J/K/mol
55 K | 49.46 J/K/mol
56.88 K | 51.68 J/K/mol
58.87 K | 53.87 J/K/mol
60 K | 55.63 J/K/mol
60.86 K | 56.7 J/K/mol
62.84 K | 59.19 J/K/mol
64.84 K | 61.5 J/K/mol
65 K | 61.62 J/K/mol
66.82 K | 63.78 J/K/mol
68.81 K | 66.04 J/K/mol
70 K | 67.43 J/K/mol
70.81 K | 68.24 J/K/mol
73.31 K | 71.15 J/K/mol
75 K | 73.06 J/K/mol
76.31 K | 74.53 J/K/mol
79.15 K | 77.5 J/K/mol
79.33 K | 77.85 J/K/mol
80 K | 78.53 J/K/mol
82.35 K | 81.16 J/K/mol
82.87 K | 81.56 J/K/mol
85 K | 83.89 J/K/mol
85.92 K | 84.81 J/K/mol
87.61 K | 86.67 J/K/mol
88.97 K | 88.01 J/K/mol
90 K | 89.13 J/K/mol
91.38 K | 90.45 J/K/mol
92.02 K | 91.18 J/K/mol
94.44 K | 93.68 J/K/mol
95 K | 94.27 J/K/mol
95.08 K | 94.4 J/K/mol
97.53 K | 96.77 J/K/mol
98.16 K | 97.48 J/K/mol
100 K | 99.3 J/K/mol
100.62 K | 99.85 J/K/mol
101.24 K | 100.56 J/K/mol
103.71 K | 102.89 J/K/mol
104.33 K | 103.67 J/K/mol
106.81 K | 105.92 J/K/mol
107.42 K | 106.61 J/K/mol
109.92 K | 109.04 J/K/mol
110 K | 109.1 J/K/mol
110.53 K | 109.61 J/K/mol
113.05 K | 112.01 J/K/mol
113.64 K | 112.58 J/K/mol
116.17 K | 114.94 J/K/mol
116.76 K | 115.5 J/K/mol
119.31 K | 118.07 J/K/mol
119.89 K | 118.47 J/K/mol
120 K | 118.6 J/K/mol
122.46 K | 120.84 J/K/mol
123.02 K | 121.58 J/K/mol
125.61 K | 123.78 J/K/mol
126.17 K | 124.44 J/K/mol
128.76 K | 126.79 J/K/mol
129.34 K | 127.55 J/K/mol
130 K | 128.1 J/K/mol
131.93 K | 129.76 J/K/mol
132.5 K | 130.3 J/K/mol
135.11 K | 132.59 J/K/mol
135.67 K | 133.23 J/K/mol
138.3 K | 135.82 J/K/mol
138.84 K | 136.39 J/K/mol
140 K | 137.4 J/K/mol
141.49 K | 138.48 J/K/mol
142.03 K | 139.28 J/K/mol
